Results on 1 molecule are retold here after article PMC11711195, “The non-nutritive sweetener rebaudioside a enhances phage infectivity” (Scientific Reports, 2025).

The assay has as its target T1, gp31 (Klebsiella phage KP32, UniProt D1L2W4).
T1 construct: gene 31; recombinant from bacterial expression, His-tag (and MBP) removed by TEV protease
T1 sequence (D1L2W4 1-192): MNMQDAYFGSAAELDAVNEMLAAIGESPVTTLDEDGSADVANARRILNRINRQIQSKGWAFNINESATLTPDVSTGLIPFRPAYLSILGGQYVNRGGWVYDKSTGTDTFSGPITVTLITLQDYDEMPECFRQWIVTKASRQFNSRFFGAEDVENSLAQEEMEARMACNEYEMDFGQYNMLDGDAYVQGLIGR
The experiment in a line: RedStarch hydrolysis, absorbance […] nm. Format: biochemical. The settings on record: activator; RedStarch 2% w/v stock; 50 µL gp31 4.673 µM plus 50 µL rebA 14.019 µM; 20 °C, 72 h.

For the molecule `C=C1C[C@@]23CC[C@H]4[C@@](C)(CCC[C@@]4(C)C(=O)O[C@@H]4O[C@H](CO)[C@@H](O)[C@H](O)[C@H]4O)[C@@H]2CC[C@]1(O[C@@H]1O[C@H](CO)[C@@H](O)[C@H](O[C@@H]2O[C@H](CO)[C@@H](O)[C@H](O)[C@H]2O)[C@H]1O[C@@H]1O[C@H](CO)[C@@H](O)[C@H](O)[C@H]1O)C3` [rebA], the increment of activity is 51.14%.
